From patent US20050014767A1, “Benzoxazole, benzothiazole, and benzimidazole derivatives for the treatment of cancer and other diseases” (priority 2003, published 2005)
Entries after “also recorded” stand apart in the source; their conditions may differ.

Tests used:
[1] = test system: phosphorylated JNK proteins; experiment: Western Blot assay for JNK protein phosphorylation in H292 lung cancer cells; type: cell-based, human; settings: 2.5 micromolar, 16 hours, FIG. 15
Description: Phosphorylated JNK proteins can be specifically detected by employing an antibody specific to phosphorylated JNK, followed by Western Blotting analysis. […] In particular, the human lung cancer cell line H292, purchased from the American Type Culture Collection (ATCC) (Manassas, Va.), was tested for JNK-activation induced by compounds 1, 2, 11, and 12 described herein.
H292 cells were grown in RPMI medium 1640 containing 2 mM L-glutamine; 10 U/ml Pen-G; 10 mcg/ml Streptomycin and 10% FCS.
Cells were kept at 6% CO2 and 37° C. H292 cells were plated at 70% confluence (adherent growing cells covering 70% of culture plate surface area) in a 10 centimeter tissue culture dish in the medium indicated above.
Compounds 1, 2, 11, and 12 were applied to cultures of the H292 cells in the medium indicated above at a concentration of 2.5 micromolar. DMSO (dimethyl sulfoxide, Sigma, St. Louis, Mo.) was used as vehicle control, and never exceeded 0.1% final concentration. Treatment was for 16 hours.
At the end of incubation of the cultured cells with the test compounds, the medium was removed and the plated cells were washed twice with cold PBS (phosphate buffer saline). Excess PBS was aspirated away and the cells were lysed and scraped into sample buffer containing 50 mM HEPES pH 7.5 (buffer), 150 mM NaCl, 0.1% Tween 20 (a detergent, Biorad, Hercules, Calif.), 20 mM NaF, 10 mcg/mL aprotinin, 10 mcg/mL leupeptin. Samples were incubated on ice for 15 minutes and insoluble material was pelleted by microfugation. Protein concentrations for each sample were determined using BSA (Bovine serum albumin, Sigma, St Louis, Mo.) as a standard in a colorimetric protein quantification assay (BioRad, Hercules, Calif.).
100 mcg of each sample of cellular lysate were subjected to electrophoresis on 12% SDS-PAGE (polyacrylamide gel electrophoresis) gels (BioRad, Hercules, Calif.). Proteins were transferred to PVDF membrane. Membranes were probed with a monoclonal antibody recognizing phosphorylated JNK (Cell Signaling, Beverly, Mass.) followed by HRP(horseradish peroxidase)-conjugated goat-anti-mouse antibody (Santa Cruz Biotechnology, Santa Cruz, Calif.). Immunoreative bands were visualized by ECL (enhanced chemiluminescence, Amersham, Buckinghanshire, England) detection on film (Kodak, Rochester, N.Y.).

A549 cells = experiment: MTT assay, non-small-cell lung cancer cell line; type: cell-based, human; settings: 1x10^-8 to 1x10^-5 M, FIG. 7
Source text: (§1) Representative compounds of the invention were screened for anti-cancer activity by the procedures and methods described below. The following human cancer cell lines were used to detect anti-cancer activity. • The breast cancer cell line MDA-MB468 served to detect anti-breast cancer activity. • The prostate cancer cell line PC-3 was used to detect anti-prostate cancer activity • The non-small-cell lung cancer cell line A549 was used to detect anti-lung cancer activity • The pancreatic cancer cell line BX-PC-3 was used to detect anti-pancreatic cancer activity. • Cell lines were purchased from American Type Culture Collection (ATCC). Cell Culture conditions:
(§2) The cancer cell cultures were grown as recommended by the ATTC manuals. A549 cells and BX-PC-3 cells were grown in DME Dulbecco's modified Eagle's medium containing 4500 mg/L glucose; 4 mM L-glutamine; 10 U/ml Pen-G; 10 mcg/ml […] and 10% fetal calf serum (FCS). PC-3 and MDA-MB468 cells were grown in RPMI medium 1640 containing 2 mM L-glutamine; 10 U/ml Pen-G; 10 mcg/ml Streptomycin and 10% FCS. Cells were kept at 6% CO2 and 37° C. Cells were seeded on day zero in 96-well format tissue culture plates at suitable densities the day before starting treatment, in the media indicated above.
(§3) On day one, the compounds of the invention were added to the culture media of growing cells, containing 10% […]. The cell media contained the compounds of the invention at one of six concentrations: 1×10^−8, 5×10^−8, 1×10^−7, 5×10^−7, 1×10^−6, and 1×10^−5M. In control experiments, 0.1% DMSO was used as vehicle control, and never exceeded 0.1% final concentration. On day four the media was removed from the cells and replaced with fresh media containing the compounds of the invention and FCS at the appropriate concentrations.
On day five 10 μl of 5 mg/ml MTT dye was added to each well containing a cell culture. The MTT assay is based on the dehydrogenase activity in active mitochondria for cleavage of the yellow tetrazolium salt MTT to produce purple formazan crystals. This conversion of MTT only occurs in living cells with intact/functional mitochondria. After addition of MTT, the cells were incubated for additional 4 hours at 6% CO2 and 37° C. Reaction was then stopped by adding 100 μl/well of a solubilization solution consisting of 10% Sodium Dodecyl Sulfate (SDS) and 10 mM HCl. On day 6 the formazan crystals formed were solubilized and the resulting colored solution quantified using a scanning multiwell spectrophotometer at a wavelength of 595 nm.
The procedure of Example 21 was employed to measure the anti-cancer activity of compounds 1 & 2 of the invention and compare them with equivalent activity tests for Comparative Compound 4, whose synthesis is given in Example 4. […]

BX-PC-3 cells = experiment: MTT assay, pancreatic cancer cell line; type: cell-based, human; settings: BX-PC-3 pancreatic cancer cells; 1x10^-8 to 1x10^-5 M; FIG. 10
Source text: as §1, §2, §3
(§4) On day five 10 μl of 5 mg/ml MTT dye was added to each well containing a cell culture. […] On day 6 the formazan crystals formed were solubilized and the resulting colored solution quantified using a scanning multiwell spectrophotometer at a wavelength of 595 nm. […]

PC-3 cells = experiment: MTT assay, prostate cancer cell line; type: cell-based, human; settings: PC-3 prostate cancer cells; 1x10^-8 to 1x10^-5 M; FIG. 9
Source text: as §1, §2, §3, §4

MDA-MB468 cells = experiment: MTT assay, breast cancer cell line; type: cell-based, human; settings: 1x10^-8 to 1x10^-5 M, FIG. 8
Source text: as §1, §2, §3, §4

Row | melting point | Structure (SMILES) | phosphorylation of JNK proteins (phospho-JNK bands) [1] | anti-cancer activity (MTT) (A549 cells) | anti-cancer activity (MTT) (BX-PC-3 cells) | anti-cancer activity (MTT) (PC-3 cells) | anti-cancer activity (MTT) (MDA-MB468 cells)
1 | – | O=C1NC(=O)/C(=C/c2ccc(-c3cc(C45CC6CC(CC(C6)C4)C5)c4ocnc4c3)nc2)S1 [Compound 2, 5-[6-(7-Adamantan-1-yl-benzoxazol-5-yl)-pyridin-3-ylmethylene]-thiazolidine-2,4-dione] | results in the production of phosphorylated JNK proteins; also recorded: induced the phosphorylation of JNK proteins; also recorded: potent activators of the phosphorylation of JNK proteins | consistent and potent anti-cancer activity at low concentrations | consistent and potent anti-cancer activity at low concentrations | consistent and potent anti-cancer activity at low concentrations | consistent and potent anti-cancer activity at low concentrations
2 | – | Nc1nc2cc(-c3ccc(/C=C4\SC(=O)NC4=O)cn3)cc(C34CC5CC(CC(C5)C3)C4)c2o1 [Compound 14, 5-[6-(7-Adamantan-1-yl-2-amino-benzoxazol-5-yl)-pyridin-3-ylmethylene]-thiazolidine-2,4-dione] | – | consistent and potent anti-cancer activity at low concentrations | consistent and potent anti-cancer activity at low concentrations | consistent and potent anti-cancer activity at low concentrations | consistent and potent anti-cancer activity at low concentrations
3 | – | Cc1nc2cc(-c3ccc(/C=C4\SC(=O)NC4=O)cn3)cc(C34CC5CC(CC(C5)C3)C4)c2o1 [Compound 1, 5-[6-(7-Adamantan-1-yl-2-methyl-benzoxazol-5-yl)-pyridin-3-ylmethylene]-thiazolidine-2,4-dione] | results in the production of phosphorylated JNK proteins; also recorded: induced the phosphorylation of JNK proteins; also recorded: potent activators of the phosphorylation of JNK proteins | consistent and potent anti-cancer activity at low concentrations | consistent and potent anti-cancer activity at low concentrations | consistent and potent anti-cancer activity at low concentrations | consistent and potent anti-cancer activity at low concentrations
4 | 314 to 316 °C | Cc1nc2cc(-c3ccc(/C=C4\SC(=O)NC4=O)cn3)cc(C3CCCCC3)c2o1 [Compound 11, 5-[6-(7-Cyclohexyl-2-methyl-benzoxazol-5-yl)-pyridin-3-ylmethylene]-thiazolidine-2,4-dione] | only weakly induced the phosphorylation of JNK proteins | only relatively weak activity | – | – | –
5 | – | O=C1NC(=O)/C(=C/c2ccc(-c3cc(C4CCCCC4)c4ocnc4c3)nc2)S1 [Compound 12, 5-[6-(7-Cyclohexyl-benzoxazol-5-yl)-pyridin-3-ylmethylene]-thiazolidine-2,4-dione] | results in the production of phosphorylated JNK proteins; also recorded: activates the phosphorylation of JNK proteins, though perhaps less potently than compound 1 or 2 | – | – | – | –
